# Experimental data taken from patent US20160089443A1, “PROTEIN-GRAPHENE NANOCOMPOSITE DRUG CARRIER” (NATIONAL CHIAO TUNG UNIVERSITY, priority 2014, published 2016).
# Columns and labels:
# RG2 cells = experiment: Toxicity tests for photothermal therapy in RG2 cells
# Protocol: Toxicity tests for photothermal therapy: No carriers, non-drug loaded carriers, and drug carriers of the present invention with different DOX concentrations were independently incubated with RG2 cells in vitro for 1 hour, and irradiated by NIR for 5 minutes (808 nm, 2 W/cm^2). Then, the cells were stained by propidium iodide and observed by a confocal microscope, and the cell viabilities were calculated.
# The conditions for bars 810, 820, and 830 were without using of DOX, and bars 810, 820, and 830 represents the cell viabilities of no carriers, which is as a control, carriers without the NIR irradiation, and carriers with the NIR irradiation, respectively. The conditions for bars 840, 850, and 860 were using of 0.25 μg/mL DOX, and bars 840, 850, and 860 represents the cell viabilities of pure DOX, which is as a control, carriers without the NIR irradiation, and carriers with the NIR irradiation, respectively. The conditions for bars 870, 880, and 890 were using of 0.05 μg/mL DOX, and bars 870, 880, and 890 represents the cell viabilities of pure DOX, which is as a control, carriers without the NIR irradiation, and carriers with the NIR irradiation, respectively. […] Bar 850 represents the drug carriers loaded with 0.25 μg/mL DOX, but not underwent the NIR irradiation after incubating with the cells. […] Bar 860 represents the drug carriers loaded with 0.25 μg/mL DOX, and underwent the NIR irradiation after incubating with the cells.
# [1] = test system: in vivo tumors (RG2 cells); experiment: Relative tumor volume after treatment with NIR irradiation; settings: mice, 24 hours after the treatment
# Protocol: In Experimental example 7, the targeting efficiency of the drug carrier of the present invention was tested by experiments on in vivo tumors (RG2 cells) of mice. The tumor temperature was also observed while undergoing NIR irradiation. Further, the effects on the volume of the tumors and the mass of the mice were observed through different conditions of treatment.
# Referring to FIG. 15A, which is a relative tumor volume vs. time graph of mice after treated by different conditions. The treating conditions were PBS+NIR irradiation, pure DOX+NIR irradiation, non-drug loaded carriers+NIR irradiation, and carriers loaded with DOX+NIR irradiation, and changes in the relative tumor volume along time of which are represented by lines 910, 920, 930, and 940, respectively. The relative tumor volume was observed after 24 hours later of the treatment, and used the tumor volume right after the treatment as a base. […] As for the treatments of the PBS+NIR irradiation, i.e. line 910, and the pure DOX+NIR irradiation, i.e. line 920, the tumor volumes were increased. […] The treatment of the PBS+NIR irradiation, i.e. line 910, could not treat the tumor because there was no drug being injected. The treatment of the pure DOX+NIR irradiation, i.e. line 920, was difficult to reach the tumor region to have the effect of therapy because the drug was not encapsulated in carriers. […]
# [2] = Mass of mice after treatment; type: in vivo; settings: with NIR irradiation
# Excerpt: Further, referring to FIG. 15B, which is a mass vs. time graph of mice after treated by different conditions. The treating conditions were PBS+NIR irradiation, pure DOX+NIR irradiation, non-drug loaded carriers+NIR irradiation, and carriers loaded with DOX+NIR irradiation, and changes in the mass of the mice along time of which are represented by lines 950, 960, 970, and 980, respectively.
compound,measurement,setting,value
"COc1cccc2c1C(=O)c1c(O)c3c(c(O)c1C2=O)C[C@@](O)(C(=O)CO)C[C@@H]3O[C@H]1C[C@H](N)[C@H](O)[C@H](C)O1 [DOX, doxorubicin]",cell death,"RG2 cells; RG2 cells, pure DOX 0.25 μg/mL (bar 840)",about 50%
same,cell viability at 0.05 μg/mL DOX compared with 0.25 μg/mL,"RG2 cells; RG2 cells, without NIR irradiation (bars 870, 880)",increased
same,IC50,"RG2 cells; Rattus norvegicus, RG2, read-out: half maximal inhibitory concentration (IC50)",~0.25 µg/mL
same,relative tumor volume,[1],increased
same,mass of mice over time,[2],no obvious difference in mass
